We go through one compound from publication PMC7263498 (bioRxiv, 2020).

The target in the assay is M^Pro (SARS-CoV-2 main protease) (Severe acute respiratory syndrome coronavirus 2, UniProt P0DTD1). In words: FRET peptide. Type of assay: biochemical.

The structures appear in SMILES notation.

For `CN1CCN(CC(=O)N2c3ccccc3C(=O)Nc3cccnc32)CC1` [Pirenzepine], the “% activation at 1 mM” value is given as above 15%.
